Patent US11440880B2, “Thalidomide analogs and methods of use” (The USA, as represented by the Secretary, Department of …, priority 2015, dated 2022)
Entries after “also recorded” stand apart in the source; their conditions may differ.

Legend:
[1] = test system: nitrite levels in the culture media; test: Nitrite level (Griess Reagent System) in LPS-challenged RAW 264.7 cells; assay type: cell-based, mouse; design: key: NS=not significant; a “+” sign=anti-inflammatory or increased cell numbers; a “−” sign=cell toxicity or pro-inflammatory; conditions: LPS 30 or 60 ng/mL, 24 h
Outline: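 RAW 264.7 cells pretreated 1 h with compound in DMSO vehicle, then challenged with LPS (30 or 60 ng/mL) for 24 h at 37° C. Conditioned-media nitrite by Griess (520 nm, sodium nitrite standard curve, 1.5 μM cutoff) in μM; mouse TNF-α by ELISA as pg/ml or % change from control.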

[2] = Precipitation of the IV formulation; assay type: physicochemical; conditions: 20 mg/kg; 12% DMSO and 88% TPGS in distilled sterile water
From the text: (§1) Compounds 29 and 86 were selected for in vivo efficacy studies of human prostate cancer. Mice positive for the severe combined immune deficieny (SCID) spontaneous mutation Prkdc^scid are deficient in functional T cells and B cells, have reduced levels of gamma globulins and lymphopenia (low white blood cell count). Due to their comprised immune system, SCID mice are amenable to xenogeneic grafts. Before starting the efficacy study, a maximum tolerated dose was established for each compound. Compound administration was by tail vein injection (IV) with a 27-gauge needle. A volume of 100 uL per 25 g of body weight was injected for each compound and dose. Compounds 29 and 86 were formulated in 12% DMSO and 88% TPGS (tocopherol polyethylene glycol succinate) in distilled sterile water. This formulation was well tolerated in vehicle control mice. The maximum tolerated dose was defined as the highest dose at which 100% of animals could tolerate treatment with mild or no toxicity for a minimum of one week of treatment. Initially, each compound was administered 3× per week to five mice per group, at 5 and 10 mg/kg. Each dose level was monitored for at least one week. […] Animals were weighed daily during the treatment courses. […] The selected dose for further experimentation was therefore 10 mg/kg.

[3] = test system: PC3 cells (xenografted tumors); test: PC3 xenograft efficacy in SCID mice; assay type: in vivo; conditions: 10 mg/kg; for tumor burden: day 0 to day 24
From the text: as §1
When the tumors of SCID mice xenografted with PC3 cells were palpable, mice were dosed with 10 mg/kg of compound 29 or compound 86, or given the vehicle alone. From day 0 to day 24, the tumor sizes in vehicle-treated animals increased by 301.33% (FIG. 15, tumor size=401.33%±35.98%).

[4] = Maximum tolerated dose in SCID mice; assay type: in vivo; conditions: 3× per week; for deaths / drug-related toxicity / weight loss: 5 mg/kg and 10 mg/kg IV; for MTD: SCID, mouse, in vivo, IV, read-out: selected dose from the maximum tolerated dose study
From the text: as §1

[5] = test system: human saphenous vein sections (microvessel outgrowth); test: Human saphenous vein assay of angiogenesis (ex vivo); assay type: cell-based; conditions: for vessel outgrowth: 10 days of incubation; for inhibition of vessel outgrowth: in words
Protocol: The saphenous vein was cleaned of subcutaneous tissue and embedded in Matrigel® matrix as previously described. After 10 days of incubation, the transverse sections of the veins were imaged. The outgrowth between the vehicle and no treatment (media) control was equivalent (106.65%±20.14, n=2 and 103.35%±4.06, n=2 respectively; FIGS. 13A and 13B).

59 cancer cell lines = test: One-dose anti-cancer screening in 59 cancer cell lines; assay type: cell-based; conditions: 1×10^−5 M; with the exception of leukemic cell lines
From the text: As well as being immunomodulatory and anti-angiogenic, lenalidomide and pomalidomide are directly cytotoxic to cancer cells. […] Compounds 29 and 86 were screened at a concentration of 1×10^−5 M (FIGS. 11 and 12, respectively). Calculated values from 0-100 indicate growth inhibition relative to a no-drug control, and values less than 0 indicate lethality, relative to the number of cells at time zero. A value of 100 means no growth inhibition. A value of 40 means 60% growth inhibition. A value of 0 means no net growth over the course of the experiment. A value of −40 means 40% lethality. A value of −100 means all cells are dead.

chicken embryos = test: Chicken embryo development / teratogenicity; assay type: in vivo, white leghorn chicken; conditions: in words; applied at HH stage 17-18
Protocol: Chicken Embryology: Fertilized white leghorn chicken embryos were incubated at 38° C. and staged according to Hamburger and Hamilton (HH) stages of development (1951). Embryos were tested at HH stage 17-18 (day 2.5). Following membrane removal, test compounds or vehicle control solutions were applied globally over the embryo. The eggs were sealed and the development of the embryos was monitored up to HH stage 30 (E9).
Compounds of interest were screened in chicken embryos (FIGS. 7I-7P).
Concentrations used in the WT zebrafish and chicken embryo assays to assess for teratogenesis, were equal to or higher than those utilized in the fil1:EGFP and mpo:GFP zebrafish assays

| Structure (SMILES) | Nitrite ([1]; 1 μM) | Nitrite ([1]; 10 μM) | Nitrite ([1]; 30 μM) | Nitrite ([1]; 60 μM) | Nitrite ([1]; 100 μM) | behaviour of the compound in the dosing solution [2] | tumor burden [3] | deaths / drug-related toxicity [4] | weight loss [4] | MTD [4] [mg/kg] | vessel outgrowth ([5]; 5 μM) | vessel outgrowth ([5]; 10 μM) | vessel outgrowth ([5]; 50 μM) | vessel outgrowth ([5]; 100 μM) | inhibition of vessel outgrowth ([5]; 10 μM (FIGS. 13D, 13E)) | activity on cell growth / cytotoxicity (59 cancer cell lines) | effect on development / mortality of chicken embryos (chicken embryos) | tumor size versus vehicle treated mice ([3]; p=0.07) | inhibition of vessel outgrowth ([5]; all concentrations) |
| --- | --- | --- | --- | --- | --- | --- | --- | --- | --- | --- | --- | --- | --- | --- | --- | --- | --- | --- | --- |
| O=C1CCC(N2C(=O)c3cccc([N+](=O)[O-])c3C2=O)C(=O)N1 (stereo not shown) [Compound 5] | NS | NS | NS | NS | NS | – | – | – | – | – | – | – | – | – | – | – | – | – | – |
| O=C1NC(=S)CCC1N1C(=O)c2cccc([N+](=O)[O-])c2C1=O (stereo not shown) [Compound 7, 2-(2-Oxo-6-thioxo-3-piperidinyl)-4-nitro-1H-isoindole-1,3(2H)-dione] | NS | NS | + | + | + | – | – | – | – | – | – | – | – | – | – | – | – | – | – |
| Nc1cccc2c1CN(C1CCC(=O)NC1=O)C2=S (stereo not shown) [Compound 29] | – | – | – | – | – | precipitate in the solution | No reduction in tumor burden | no animals died or needed to be euthanized due to drug-related toxicity | no significant weight loss | 10 | 155.12%±23.69 | 168.06%±14.87 | 102.38%±16.78 | 62.53%±13.69 | no inhibition | very little activity | – | – | – |
| Nc1cccc2c1CN(C13CC4CC(CC(C4)C1)C3)C2=O [Compound 77, 2,3-Dihydro-4-amino-2-(tricyclo[3.3.1.1^3,7]dec-1-yl)-1H-isoindol-1-one] | NS | NS | NS | – | – | – | – | – | – | – | – | – | – | – | – | – | – | – | – |
| CC(N1Cc2c(N)cccc2C1=O)C12CC3CC(CC(C3)C1)C2 (stereo not shown) [Compound 81] | NS | NS | + | – | – | – | – | – | – | – | – | – | – | – | – | – | hemorrhaging throughout the body and head; also recorded: growth reduction and hemorrhaging throughout the head | – | – |
| O=C1c2ccccc2CN1C12CC3CC(CC(O)(C3)C1)C2 [Compound 86, 2,3-Dihydro-2-(tricyclo[3.3.1.1^3,7]dec-1-hydroxy-3-yl)-1H-isoindol-1-one] | NS | NS | NS | – | – | precipitate in the solution | No reduction in tumor burden | no animals died or needed to be euthanized due to drug-related toxicity | no significant weight loss | 10 | – | – | – | – | vastly reduced outgrowth | very little activity | – | trend to separate | inhibit outgrowth at all concentrations |
